Measured values as given in PMC6519732 (Journal of medicinal chemistry, 2019).

Legend:
human recombinant HDAC6 = target: T1, human recombinant HDAC6 (Homo sapiens, UniProt Q9UBN7); format: biochemical; conditions: for LE, HDAC6 (ligand efficiency): from IC50 in place of Kd, T = 310 K; for HDAC6 inhibition: concentrations up to 25 μM, data not shown; for SF 1/6, selectivity factor for HDAC6 over HDAC1: IC50(HDAC1)/IC50(HDAC6)
T1 sequence (Q9UBN7 1-1215): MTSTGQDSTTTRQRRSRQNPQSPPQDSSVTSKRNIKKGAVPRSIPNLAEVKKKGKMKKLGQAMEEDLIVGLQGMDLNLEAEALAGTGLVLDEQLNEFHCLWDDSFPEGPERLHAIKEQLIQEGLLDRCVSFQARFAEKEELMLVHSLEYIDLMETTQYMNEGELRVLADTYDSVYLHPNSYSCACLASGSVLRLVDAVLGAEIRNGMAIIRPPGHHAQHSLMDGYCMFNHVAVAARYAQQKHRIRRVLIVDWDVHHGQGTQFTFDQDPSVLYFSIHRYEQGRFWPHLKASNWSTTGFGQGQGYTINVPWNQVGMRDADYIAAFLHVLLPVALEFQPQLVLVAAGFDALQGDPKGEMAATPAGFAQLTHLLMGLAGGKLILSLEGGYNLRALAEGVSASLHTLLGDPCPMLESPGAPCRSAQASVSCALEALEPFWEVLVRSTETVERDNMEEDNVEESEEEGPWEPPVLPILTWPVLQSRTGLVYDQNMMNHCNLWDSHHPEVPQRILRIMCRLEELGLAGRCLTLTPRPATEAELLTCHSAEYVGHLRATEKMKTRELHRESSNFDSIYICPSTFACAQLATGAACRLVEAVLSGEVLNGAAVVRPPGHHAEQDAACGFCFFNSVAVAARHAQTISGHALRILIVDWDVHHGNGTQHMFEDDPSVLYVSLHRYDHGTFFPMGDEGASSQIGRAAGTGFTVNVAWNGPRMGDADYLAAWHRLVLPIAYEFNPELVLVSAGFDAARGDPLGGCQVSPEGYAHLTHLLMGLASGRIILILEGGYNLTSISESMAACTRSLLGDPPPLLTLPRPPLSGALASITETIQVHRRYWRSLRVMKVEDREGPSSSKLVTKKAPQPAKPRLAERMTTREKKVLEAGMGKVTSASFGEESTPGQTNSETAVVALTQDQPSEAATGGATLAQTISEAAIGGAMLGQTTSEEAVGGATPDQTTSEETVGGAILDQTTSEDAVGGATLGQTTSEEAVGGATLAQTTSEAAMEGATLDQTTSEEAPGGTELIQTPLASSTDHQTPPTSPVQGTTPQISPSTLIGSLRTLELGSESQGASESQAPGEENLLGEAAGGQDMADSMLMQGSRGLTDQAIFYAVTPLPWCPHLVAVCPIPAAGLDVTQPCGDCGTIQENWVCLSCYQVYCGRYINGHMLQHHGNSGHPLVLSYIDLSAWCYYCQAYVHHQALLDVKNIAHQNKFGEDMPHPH

[1] = Metabolic stability in human liver microsomes; format: in vitro ADME; conditions: for half-life at 2 μM: human, liver microsomes
human recombinant HDAC1 = human recombinant HDAC1 (Homo sapiens, UniProt Q13547); test: In vitro HDAC1 inhibition, fluorogenic ZMAL assay; format: biochemical
hHDAC6 = conditions: cited from earlier work
HepaRG cells = test: CellTiter-Blue cell viability assay, HepaRG; conditions: 24 h of treatment, highest tested concentration (100 μM)
T24 cells = conditions: T24, 10 and 100 μM, 72 h
HUH7 cells = conditions: HUH7, 10 and 100 μM, 72 h
MDA-MB-231 cells = conditions: MDA-MB-231, 10 and 100 μM, 72 h

Sequence of human recombinant HDAC1 (Q13547 whole entry): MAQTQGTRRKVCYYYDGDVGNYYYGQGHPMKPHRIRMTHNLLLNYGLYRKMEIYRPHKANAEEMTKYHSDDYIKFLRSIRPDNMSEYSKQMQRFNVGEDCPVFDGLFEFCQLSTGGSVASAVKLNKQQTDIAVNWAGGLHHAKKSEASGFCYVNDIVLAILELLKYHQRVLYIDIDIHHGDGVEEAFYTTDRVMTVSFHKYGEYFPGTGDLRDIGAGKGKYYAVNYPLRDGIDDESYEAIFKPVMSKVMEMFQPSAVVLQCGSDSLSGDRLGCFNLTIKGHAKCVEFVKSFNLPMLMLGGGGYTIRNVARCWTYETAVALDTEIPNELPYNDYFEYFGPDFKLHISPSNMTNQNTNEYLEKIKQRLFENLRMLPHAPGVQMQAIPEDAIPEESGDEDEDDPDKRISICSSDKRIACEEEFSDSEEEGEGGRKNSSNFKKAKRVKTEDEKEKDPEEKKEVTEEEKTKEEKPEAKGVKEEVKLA

| SMILES | LE, HDAC6 (ligand efficiency) (human recombinant HDAC6) | IC50 (human recombinant HDAC1) | further results |
| --- | --- | --- | --- |
| O=C(NO)c1ccc(CN2c3ccccc3Sc3ccc(Cl)cc32)cc1 [Compound 7f, 4-[(2-Chloro-10H-phenothiazin-10-yl)methyl]-N-hydroxybenzamide] | 0.43 (kcal/mol)/non-H-Atom |  |  |
| COc1ccc2c(c1)N(Cc1ccc(C(=O)NO)cc1)c1ccccc1S2 [Compound 7g, N-Hydroxy-4-[(2-methoxy-10H-phenothiazin-10-yl)methyl]benzamide] | 0.42 (kcal/mol)/non-H-Atom |  |  |
| Cn1c(=O)c2c(ncn2C)n(C)c1=O [Caffeine, reference compound] |  |  | half-life at 2 μM [1]: > 40 min |
| O=C(O)c1ccc(CN2c3ccccc3Sc3ccccc32)cc1 [Compound 5a, 4-[(10H-Phenothiazin-10-yl)methyl]benzoic acid] |  |  | activity on HDAC6 (in words) (human recombinant HDAC6): inactive; HDAC6 inhibition (human recombinant HDAC6): did not show noteworthy HDAC6 inhibition |
| O=C(NO)c1ccc(CN2N=C(Cl)C=C3Sc4ccccc4N=C32)cc1 [Compound 10q, 4-[(3-Chloro-1H-benzo[b]pyridazino[3,4-e][1,4]thiazin-1-yl)methyl]-N-hydroxybenzamide] | 0.38 (kcal/mol)/non-H-Atom | 4.58 ± 0.73 µM |  |
| CON(C)C(=O)c1ccc(CN2c3ccccc3Sc3ccccc32)cc1 [Compound 23, 4-[(10H-Phenothiazin-10-yl)methyl]-N-methoxy-N-methylbenzamide] |  |  | activity on HDAC1 (in words) (human recombinant HDAC1): completely inactive; activity on HDAC6 (in words) (human recombinant HDAC6): completely inactive |
| O=C(NO)c1ccc(CN2c3ccccc3Sc3cccc(Cl)c32)cc1 [Compound 7c, 4-[(1-Chloro-10H-phenothiazin-10-yl)methyl]-N-hydroxybenzamide] | 0.43 (kcal/mol)/non-H-Atom |  |  |
| CCCCN(Cc1ccc(C(=O)NO)cc1)C(=O)Nc1ccccc1 [Nexturastat A] |  |  | selectivity over HDAC1 (hHDAC6): ~ 600 fold |
| O=C(NO)c1ccc(CN2c3ccncc3Sc3ccncc32)cc1 [Compound 7m, 4-[(10H-Dipyrido[3,4-b:3’,4’-e][1,4]thiazin-10-yl)methyl]-N-hydroxybenzamide] | 0.46 (kcal/mol)/non-H-Atom | 0.79 ± 0.14 µM |  |
| O=C(NO)c1ccc(CN2c3ccccc3[S+]([O-])c3ccccc32)cc1 [Compound 7e, N-Hydroxy-4-[(5-oxido-10H-phenothiazin-10-yl)methyl]benzamide] | 0.39 (kcal/mol)/non-H-Atom |  |  |
| O=C(NO)c1ccc(CCN2c3ccccc3Sc3ccccc32)cc1 [Compound 22, 4-[2-(10H-Phenothiazin-10-yl)ethyl]-N-hydroxybenzamide] | 0.37 (kcal/mol)/non-H-Atom | 11.7 ± 2.61 µM | SF 1/6, selectivity factor for HDAC6 over HDAC1 (human recombinant HDAC6): 86 |
| O=C(NO)c1ccc(CN2c3ccccc3Sc3nccnc32)cc1 [Compound 7k, 4-[(10H-Benzo[b]pyrazino[2,3-e][1,4]thiazin-10-yl)methyl]-N-hydroxybenzamide] | 0.44 (kcal/mol)/non-H-Atom | 3.84 ± 0.13 µM | SF 1/6, selectivity factor for HDAC6 over HDAC1 (human recombinant HDAC6): 226 |
| O=C(NO)c1ccc(CN2c3ccccc3Sc3cc(Cl)nnc32)cc1 [Compound 7q, 4-[(3-Chloro-10H-benzo[b]pyridazino[3,4-e][1,4]thiazin-10-yl)methyl]-N-hydroxybenzamide] | 0.42 (kcal/mol)/non-H-Atom | 1.08 ± 0.04 µM |  |
| O=C(NO)c1ccc(N2c3ccccc3Sc3ccccc32)cc1 [Compound 18, N-Hydroxy-4-(10H-phenothiazin-10-yl)benzamide] | 0.33 (kcal/mol)/non-H-Atom | 5.87 ± 0.71 µM | SF 1/6, selectivity factor for HDAC6 over HDAC1 (human recombinant HDAC6): 2 |
| Cc1nc2c(s1)Sc1ccccc1N2Cc1ccc(C(=O)NO)cc1 [Compound 7o, N-Hydroxy-4-[(2-methyl-4H-benzo[b]thiazolo[4,5-e][1,4]thiazin-4-yl)methyl]benzamide] | 0.42 (kcal/mol)/non-H-Atom | 5.05 ± 0.75 µM | SF 1/6, selectivity factor for HDAC6 over HDAC1 (human recombinant HDAC6): 136 |
| O=C(NO)c1ccc(CN2N=CC=C3Sc4ccccc4N=C32)cc1 [Compound 10p, 4-[(1H-Benzo[b]pyridazino[3,4-e][1,4]thiazin-1-yl)methyl]-N-hydroxybenzamide] | 0.44 (kcal/mol)/non-H-Atom | 0.75 ± 0.04 µM |  |
| CCSc1ccc2c(c1)N(Cc1ccc(C(=O)NO)cc1)c1ccccc1S2 [Compound 7h, 4-{[2-(Ethylthio)-10H-phenothiazin-10-yl]methyl}-N-hydroxybenzamide] | 0.38 (kcal/mol)/non-H-Atom |  |  |
| O=C(NO)c1ccc(CC(=O)N(CCO)c2ccccc2)cc1 [HPOB, N-hydroxy-4-(2-[(2-hydroxyethyl)(phenyl)amino]-2-oxoethyl)benzamide] |  |  | selectivity over HDAC1 (hHDAC6): ~ 50 fold |
| CN1CCC2=C(C1)N(Cc1ccc(C(=O)NO)cc1)c1ccccc1S2 [Compound 14j, N-Hydroxy-4-[(2-methyl-1,2,3,4-tetrahydro-10H-benzo[b]pyrido[3,4-e][1,4]thiazin-10-yl)methyl]benzamide] | 0.41 (kcal/mol)/non-H-Atom |  |  |
| O=C(O)c1ccc(CN2c3ccncc3Sc3ncccc32)cc1 [Compound 5n, 4-[(5H-Dipyrido[2,3-b:4’,3’-e][1,4]thiazin-5-yl)methyl]benzoic acid] |  |  | activity on HDAC6 (in words) (human recombinant HDAC6): inactive; HDAC6 inhibition (human recombinant HDAC6): did not show noteworthy HDAC6 inhibition |
| O=C(NO)c1ccc(CN2c3ccccc3Sc3ccc(C(F)(F)F)cc32)cc1 [Compound 7d, N-Hydroxy-4-{[2-(trifluoromethyl)-10H-phenothiazin-10-yl]methyl}benzamide] | 0.37 (kcal/mol)/non-H-Atom |  |  |
| O=C(NO)c1ccc(CN2c3ccccc3Sc3cccnc32)cc1 [Compound 7i, 4-[(10H-Benzo[b]pyrido[2,3-e][1,4]thiazin-10-yl)methyl]-N-hydroxybenzamide] |  |  | Viability of HepaRG cells (HepaRG cells): not affected; human liver microsomal stability (in words) [1]: metabolically quite stable; half-life at 2 μM [1]: > 40 min; effect on proliferation (in words) (T24 cells): inhibited proliferation; effect on proliferation (in words) (HUH7 cells): inhibited proliferation; effect on proliferation (in words) (MDA-MB-231 cells): inhibited proliferation |
| O=C(NO)c1ccc(CN2c3ccccc3Sc3ccccc32)cc1 [Compound 1a, 4-[(10H-Phenothiazin-10-yl)methyl]-N-hydroxybenzamide] |  |  | Viability of HepaRG cells (HepaRG cells): not affected; human liver microsomal stability (in words) [1]: moderate stability; compound remaining ([1]; human liver microsomes, after 40 min incubation): about 77%; half-life at 2 μM [1]: > 40 min |
| O=C(NO)c1ccc(CN2c3ccccc3Sc3ccncc32)cc1 [Compound 7j, 4-[(10H-Benzo[b]pyrido[3,4-e][1,4]thiazin-10-yl)methyl]-N-hydroxybenzamide] | 0.46 (kcal/mol)/non-H-Atom | 1.25 ± 0.01 µM | SF 1/6, selectivity factor for HDAC6 over HDAC1 (human recombinant HDAC6): 179 |
| CN1CCc2c(n(Cc3ccc(C(=O)NO)cc3)c3ccccc23)C1 [Regioisomer of Tubastatin] |  |  | SF 1/6, selectivity factor for HDAC6 over HDAC1 (hHDAC6; from published IC50 values): 3700 |
| O=C(NO)c1ccc(CN2c3cccnc3Sc3cccnc32)cc1 [Compound 7l, 4-[(10H-Dipyrido[2,3-b:2’,3’-e][1,4]thiazin-10-yl)methyl]-N-hydroxybenzamide] | 0.45 (kcal/mol)/non-H-Atom | 3.39 ± 0.23 µM | SF 1/6, selectivity factor for HDAC6 over HDAC1 (human recombinant HDAC6): 242 |
| O=C(NO)c1ccc(CN2c3ccccc3Sc3ccnnc32)cc1 [Compound 7p, 4-[(10H-Benzo[b]pyridazino[3,4-e][1,4]thiazin-10-yl)methyl]-N-hydroxybenzamide] | 0.45 (kcal/mol)/non-H-Atom | 1.06 ± 0.08 µM |  |
| O=C(CCCCCCNC(=O)c1cnc(N(c2ccccc2)c2ccccc2)nc1)NO [Ricolinostat] |  |  | selectivity for HDAC6 relative to class I HDACs (hHDAC6; introduction, literature statement): at least 10 fold |
